Test [1] has as its system S. aureus VISA (vancomycin intermediate Staphylococcus aureus). Put plainly: MIC by broth microdilution, VISA. It is filed as cell-based. The protocol: (§1) Whole-cell antimicrobial activity was determined by broth microdilution. Test compounds were dissolved in DMSO and diluted 1:10 in water to produce a 64 mcg/ml stock solution. Using a 96 well microtitre plate, a Microlab AT Plus 2 (Hamilton Co., Reno, Nev.) serially diluted 50 ul of the stock solution into an appropriate broth medium. Staphylococcal isolates were tested using cation adjusted Mueller Hinton broth. For S. pneumonaie testing, the Mueller Hinton broth was supplemented with 5% lysed horse blood and H. influenzae was tested with Haemophilus Test Medium. After the compounds were diluted, a 50 ul aliquot of the test isolate (˜1×10^6 cfu/ml) prepared in normal saline was added to each well of the microtitre plate. The final test concentrations ranged from 0.016-16 ug/mL. Inoculated plates were incubated at 35 °C in ambient air for 18 to 24 hours. The minimum inhibitory concentration (MIC) was determined as the lowest concentration of compound that inhibited visible growth.
Background: Broth dilution looks for growth in wells or tubes with falling amounts of substance.

Test [2] deals with S. aureus MRSA (methicillin resistant Staphylococcus aureus). Put plainly: MIC by broth microdilution, MRSA. The class given is cell-based. As to conditions: S. aureus MRSA (61 isolates); not all isolates tested against fusidic acid. The protocol:
as §1

The subject of test [3] is S. aureus Mupirocin^r (mupirocin resistant). Put plainly: MIC by broth microdilution, mupirocin resistant S. aureus. It is filed as cell-based, Staphylococcus aureus. As to conditions: S. aureus Mupirocin^r (32 isolates); not all isolates tested against fusidic acid. The protocol: as §1
Test [4] concerns S. aureus MRSA&Mup^r (methicillin resistant & mupirocin resistant Staphylococcus aureus). Put plainly: MIC by broth microdilution, MRSA&Mup^r. It is filed as cell-based. As to conditions: S. aureus MRSA&Mup^r (14 isolates); not all isolates tested against fusidic acid. As for the experimental part:
as §1

Test [5] deals with S. aureus Macrolide^r (macrolide resistant). Put plainly: MIC by broth microdilution, macrolide resistant S. aureus. The class given is cell-based, Staphylococcus aureus. As to conditions: S. aureus Macrolide^r (69 isolates); not all isolates tested against fusidic acid. The protocol: as §1
Test [6] has as its system S. aureus Fusidic acid^r (fusidic acid resistant). Put plainly: MIC by broth microdilution, fusidic acid resistant S. aureus. The class given is cell-based, Staphylococcus aureus. As to conditions: S. aureus Fusidic acid^r (6 isolates). The protocol:
as §1

Test [7] relates to S. aureus Linezolid resistant. Put plainly: MIC by broth microdilution, linezolid resistant S. aureus. As to conditions: S. aureus (3 isolates) Linezolid resistant. It is filed as cell-based, Staphylococcus aureus. As for the experimental part:
as §1

The subject of test [8] is H. influenzae BLNAR (beta lactamase negative ampicillin resistant). Put plainly: MIC by broth microdilution, H. influenzae BLNAR. It is filed as cell-based. As to conditions: H. influenzae (5 isolates) BLNAR; Compound A n = 4. As for the experimental part:
as §1

Test [9] relates to H. influenzae ClarR (clarithromycin resistant). As to the kind of experiment: MIC by broth microdilution, H. influenzae ClarR. The class given is cell-based. As to conditions: H. influenzae (5 isolates) ClarR; Compound A n = 3. The protocol: as §1
The mark [10] stands for this setting: S. aureus VISA (6 isolates), first part of table.
Where [11] appears, read: S. aureus (4 isolates) VISA (vanc. MIC 4), second part of table.

Values after ≈ are worked out from the molar mass of the structure shown.

Regarding `C/C(=C\C(=O)OCCCCCCCCC(=O)O)C[C@@H]1OC[C@H](C[C@@H]2O[C@H]2[C@@H](C)[C@H](C)O)[C@@H](O)[C@H]1O` [Mupirocin], the “MIC Range” value in test [1] (setting [10]) was below 1 µg/mL.

Turning to `C=C[C@]1(C)C[C@@H](OC(=O)CSC2CC3CCC(C2)N3C)[C@]2(C)C(C)CC[C@]3(CCC(=O)[C@H]32)[C@@H](C)[C@@H]1O` (stereo partly drawn) [Compound A, mutilin 14-(exo-8-methyl-8azabicyclo[3.2.1]oct-3-ylsulfanyl)-acetate], the “MIC Range” value in [2] is below 0.016 to 0.5 µg/mL; in [3], below 0.016 to 0.5 µg/mL; in test [4], below 0.016 to 0.12 µg/mL; in test [5], 0.03 to 0.5 µg/mL; in test [6], below 0.016 to 0.03 µg/mL; in test [1] (setting [11]) it was 0.06 to 1 µg/mL. The “MIC Range” value in test [1] (setting [10]) is below 0.06 to 1 µg/mL; in test [7], 1 to 2 µg/mL; in test [8], 2 to 4 µg/mL; in test [9], 0.12 to 0.25 µg/mL.

As for `C[C@H]1COc2c(N3CCN(C)CC3)c(F)cc3c(=O)c(C(=O)O)cn1c23` [Levofloxacin], the “MIC Range” value in [1] (setting [11]) was 8 to 64 µg/mL; in test [7] it was 16 µg/mL (≈ 44.3 µM); in test [8], below 0.016 µg/mL; in test [9], below 0.016 µg/mL.

In the case of `CO/N=C(\C(=O)N[C@@H]1C(=O)N2C(C(=O)O)=C(COC(N)=O)CS[C@H]12)c1ccco1` [Cefuroxime], the “MIC Range” value is above 16 µg/mL in test [1] (setting [11]), above 16 µg/mL in test [7], 8 to 16 µg/mL in test [8] and 0.5 to 1 µg/mL in test [9].

Turning to `CC[C@H]1OC(=O)[C@H](C)C(=O)[C@H](C)[C@@H](O[C@@H]2O[C@H](C)C[C@H](N(C)C)[C@H]2O)[C@](C)(OC)C[C@@H](C)C(=O)[C@H](C)[C@H]2N(CCCCn3cnc(-c4cccnc4)c3)C(=O)O[C@]12C` [Telithromycin], the “MIC Range” value in test [7] was 0.03 to 0.06 µg/mL; in [8], 1 µg/mL (≈ 1.23 µM).

Turning to `CC(=O)O[C@H]1C[C@@]2(C)[C@@H](C[C@@H](O)[C@H]3[C@@]4(C)CC[C@@H](O)[C@@H](C)[C@@H]4CC[C@@]32C)/C1=C(\CCC=C(C)C)C(=O)O` [Fusidic acid], the “MIC Range” value in test [2] is 0.12 to 1 µg/mL; in test [4] it was 0.12 to 0.5 µg/mL; in test [5], 0.12 to 1 µg/mL; in test [6], above 16 µg/mL.

Regarding `CC[C@H]1OC(=O)[C@H](C)[C@@H](O[C@H]2C[C@@](C)(OC)[C@@H](O)[C@H](C)O2)[C@H](C)[C@@H](O[C@@H]2O[C@H](C)C[C@H](N(C)C)[C@H]2O)[C@](C)(O)C[C@@H](C)CN(C)[C@H](C)[C@@H](O)[C@]1(C)O` [Azithromycin], the “MIC Range” value was 0.5 µg/mL (≈ 0.668 µM) in test [7] and 1 to 2 µg/mL in test [8].

For `CC1(C)S[C@@H]2[C@H](NC(=O)[C@H](N)c3ccc(O)cc3)C(=O)N2[C@H]1C(=O)O` [Amoxicillin], the entries for the “MIC Range” value in test [1] (setting [11]), in test [7] and in test [8] were 8 to 32 µg/mL, above 32 µg/mL and 4 to 16 µg/mL, respectively.

For the origin of these results see patent US20080171766A1, “Novel Method” (SMITHKLINE BEECHAM CORPORATION, priority 2005, published 2008).
